Source: publication PMC11187126, “Structure and dynamics of the pyroglutamylated RF-amide peptide QRFP receptor GPR103” (Nature Communications, 2024)
Read-outs that look alike come from different tables or passages of the source. No end group written: not given here.

Molecular target: T1, GPR103 T102^2.61A (Homo sapiens, UniProt Q96P65, T102A)
T1 construct: we used human full-length QRFPR-encoding plasmids; expressed in transfected cells; host or cells: HEK293 cells, pCAGGS vector
T1 sequence (Q96P65 1-431 T102A): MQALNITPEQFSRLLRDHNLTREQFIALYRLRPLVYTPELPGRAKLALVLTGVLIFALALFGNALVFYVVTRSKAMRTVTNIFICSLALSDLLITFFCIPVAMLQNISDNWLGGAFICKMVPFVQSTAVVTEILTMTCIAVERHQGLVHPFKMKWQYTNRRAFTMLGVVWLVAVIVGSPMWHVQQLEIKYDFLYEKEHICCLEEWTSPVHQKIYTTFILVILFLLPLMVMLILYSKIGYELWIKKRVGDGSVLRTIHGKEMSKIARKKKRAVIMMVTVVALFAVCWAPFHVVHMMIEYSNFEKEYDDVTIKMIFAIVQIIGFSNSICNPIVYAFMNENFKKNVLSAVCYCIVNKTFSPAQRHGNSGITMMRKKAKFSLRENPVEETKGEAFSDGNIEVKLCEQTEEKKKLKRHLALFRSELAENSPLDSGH
Assay: TGFα shedding assay; Exp. level WT (1:1)
Format: cell-based
Procedure: For the TGFα shedding assay and the flow cytometry analysis, we used human full-length QRFPR-encoding plasmids. Specifically, GPR103 was N-terminally modified with an HA signal sequence followed by a FLAG epitope and then a flexible linker ([…]; the FLAG epitope is underlined) and inserted into the pCAGGS vector. Plasmid encoding GPR103 mutants were generated using Quickchange Site-Directed Mutagensis kit (Agilent).
The TGFα shedding assay was performed as described previously with minor modifications. Plasmid transfection was performed in a 6-well plate with a mixture of 500 ng (per well in a 6-well plate) AP-TGFα-encoding plasmid and 200 ng GPR103-encoding plasmid. After 1-day culture, the transfected cells were harvested by trypsinization, pelleted by centrifugation at 190 × g for 5 min, and washed once with 5 mM HEPES (pH 7.4)-containing Hank’s Balanced Salt Solution (HBSS). After centrifugation, the cells were resuspended in 8 mL of the HEPES-containing HBSS. The cell suspension was seeded in a 96-well culture plate (cell plate) at a volume of 90 μL (per well hereafter) and incubated in a 37 °C incubator with 5% CO2 for 30 min. […] After spinning the cell plates at 190 × g for 2 min, 80 μL of conditioned media was transferred to an empty 96-well plate (conditioned media (CM) plate). Then, 80 μL of AP reaction solution (10 mM p-nitrophenylphosphate (p-NPP), 120 mM Tris-HCl (pH 9.5), 40 mM NaCl, and 10 mM MgCl2) was dispensed into the cell plates and the CM plates. Absorbance at 405 nm of the plates was measured using a microplate reader (SpectraMax 340 PC384, Molecular Devices) before and after 1-h incubation at room temperature. Ligand-induced AP-TGFα release was calculated by subtracting spontaneous AP-TGFα release signal from ligand-induced AP-TGFα release signal. The AP-TGFα release signals were fitted to a four-parameter sigmoidal concentration–response curve, using the Prism 10 software (GraphPad Prism). For each replicate experiment, the pEC50 parameter (negative logarithmic values of EC50 values) of the individual GPR103 mutants were normalized to that of the wild-type GPR103 performed in parallel, and resulting ∆pEC50 values were used to denote ligand response activity of the mutants. […]
Exp. le vel: WT (1:5 0)Exp. le vel: WT (1:5 0)Exp. le vel: WT (1:5 0)Exp. le vel: WT (1:2 0)Exp. le vel: WT (1:2 0)Exp. le vel: WT (1:1 0) […]
L1 4N - t e r mA F2 5N - t e r mA I 2 6N - t e r mA Y 2 9N - t e r mA C 9 82 .5 7A T10 22 .6 1A Exp . l eve l: WT (1 :5)Exp . l evel : >WT (1 :1)Exp. le vel: WT (1:2 0)Exp. le vel: WT (1:2 0)Exp. le vel: WT (1:5 0)Exp . l eve l: WT (1 :1) […]
Exp. le vel: WT (1:1 0)Exp. le vel: WT (1:2 0) C 1 1 83 .2 5AExp. le vel: WT (1:5 0)Exp. le vel: WT (1:5 0)Exp. le vel: WT (1:2 0)Exp . l eve l: WT (1 :5) […]
Exp. le vel: WT (1:5 0)Exp. le vel: WT (1:1 0)Exp. le vel: WT (1:5 0) E203ECL2AExp . l evel : >WT (1 :1)Exp. le vel: WT (1:5 0)Exp. le vel: WT (1:5 0) […]
Exp . l eve l: WT (1 :1) F28Exp. le vel: WT (1:5 0) C 2 8 56 .4 7AExp. le vel: WT (1:2 0) WExp. le vel: WT (1:2 0) F28Exp. le vel: WT (1:5 0)Exp . l evel : >WT (1 :1) […]
Exp. le vel: WT (1:5 0)Exp. le vel: WT (1:5 0) C 3 2 77 .4 8AExp . l eve l: WT (1 :5)Exp . l evel : >WT (1 :1)Exp . l evel : >WT (1 :1) […]
Suppl eme nt ary Figure 1 | Mutational analysis of GPR103. […]
mutants. Data are presented as mean values ± SEM, normally n=3-5; dots), each performed in triplicate. b-d Cell-surface expression (b) and QRFP26-in-duced activation of GPR103 (c, d) were analyzed by the flow cytometry and the TGFα shedding assay, respectively. From the concentration–response curves (a), Emax (c) and ΔpEC50 (d) values relative to the wild type were calculated. Colors in the mutant bars indicate an expression level matching to that of titrated wild type. Statistical analyses were performed using the ordinary one-way ANOVA followed by Dunnett tests with the expression-matched […]

TSGPLGNLAEELNGYSRKKGGFSFRF-NH2 [QRFP26] gave an Emax (Exp. #1) of 102.50 % WT, an Emax (Exp. #2) of 94.07 % WT and an Emax (Exp. #3) of 109.18 % WT. It also gave an Emax (mean, read-out: Emax) of 102%, an EC50 (n = 3) of 20.4 nM and an Emax (n = 3, read-out: Emax) of 105 ± 3.6%.
